From the NIST ThermoML archive (doi:10.1021/je050513r) come the findings set out here.

Numbers after ± are expanded uncertainties.

The nature of this series: refractive index (Na D-line) (dimensionless). Particulars: 293.1 K; 101.33 kPa; Liquid; Standard Abbe refractometry.

As to `CCCCCCCCCCCCCCCC` [hexadecane], the refractive index was 1.4344 ± 0.0007.

On to `Cc1cc(C)cc(C)c1` [1,3,5-trimethylbenzene], for which the refractive index is 1.4992 ± 0.0007.

For `CN1CCCC1=O` [N-methylpyrrolidone], the refractive index is listed as 1.4686 ± 0.0007.

The term refractive index denotes the speed of light in vacuum divided by its phase velocity in the sample.
